Drawing on patent US20040198833A1, “Acetylenic sulfonamide derivatives” (priority 2000, published 2004), this text covers melting point for one molecule.

The melting point is the temperature, or range, at which the solid turns liquid.

The molecule `CC(C)S(=O)(=O)NCC(C)(F)c1ccc(C#CCCCCO)cc1` (stereo not shown) [Example 11, {2-fluoro-2-[4-(6-hydroxyhex-1-ynyl)phenyl]propyl}[(methylethyl)sulfonyl]amine] had a melting point of 92 to 93 °C.
